Test results published in PubChem BioAssay AID1117330.
pIC50: −log10 of the molar value. Active and inactive are the calls of the source. No rule for the calls is given here.

What follows are compounds tested on HT-29 viability, CellTiter-Glo luminescence (assay: cytotoxicity toward HT-29 cells – cell-based, CellTiter-Glo luminescence, IC50, dose response (AID 1117330)).

SMILES | pIC50 | IC50
CCCCCCCCCCCCCC[N+](C)(C)C | 5.88 | 
CC(=O)[O][Hg][c]1ccccc1 | 6.10 | 
O=C(O)C1(C(=O)O)CCC1.[NH2-].[NH2-].[Pt+2] |  | > 20 µM (inactive)
OCCN1CCN(CC/C=C2/c3ccccc3Sc3ccc(C(F)(F)F)cc32)CC1 | 5.74 | 
Cc1ccc([N+](=O)[O-])[c]2c1[O][Hg]2 | 5.84 | 
O=C1[O][Bi][O]c2ccccc21 |  | > 20 µM (inactive)
